This note sets out measurements from PubChem BioAssay (NCI).

Test systems include RPMI-8226 leukemia; KM12 colon; M14 melanoma; DMS 273 small cell lung; SNB-78 CNS; SR leukemia; LXFL 529 NSCLC; A498 renal; DLD-1 colon; M19-MEL melanoma; XF 498 CNS; ACHN renal; HOP-92 NSCLC; KM20L2 colon; NCI-H522 lung; TK-10 renal; NCI/ADR-RES ovarian; MCF7 breast; HOP-18 NSCLC; HS 578T breast.
Common to all, as to assay: NCI-60 cell line screen, 48 h

Each structure is given as a SMILES string.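 Method: 48-hour compound exposure of cells in 96-well plates, five concentrations, linear interpolation of endpoints. Definition used: TGI = concentration required for complete inhibition of growth.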 Where a SMILES comes first, the peptide text is derived from it. [ ]: non-standard residue; d: D form.

In the case of `CCC1NC(N=Nc2ccc([N+](=O)[O-])cc2)(P(=O)(OC(C)C)OC(C)C)OC1=O` (configuration not stated), the TGI in the experiment on RPMI-8226 leukemia, with KM12 colon, in the experiment on M14 melanoma, in the experiment with DMS 273 small cell lung, in the experiment with SNB-78 CNS and in the experiment with SR leukemia was > 100 µM throughout. The TGI with LXFL 529 NSCLC, in the experiment with A498 renal, in the experiment on DLD-1 colon, with M19-MEL melanoma, in the experiment on XF 498 CNS and in the experiment with ACHN renal was > 100 µM in each case. In addition, the TGI in the experiment with HOP-92 NSCLC, in the experiment with KM20L2 colon, in the experiment with NCI-H522 lung and with TK-10 renal was > 100 µM each time.

In the case of `CC(C)C[C@H](NC(=O)[C@H](CC(C)C)NC(=O)[C@@H](Cc1c[nH]c2ccccc12)NC(=O)[C@H](Cc1ccccc1)NC(=O)[C@@H](Cc1c[nH]c2ccccc12)NC(=O)[C@H](CCC(N)=O)NC(=O)[C@H](CCC(N)=O)NC(=O)[C@H]1CCCN1C(=O)[C@@H](N)CCCCN)C(N)=O` (H-K[dP]QQ[dW]F[dW]LL-NH2), the TGI in the experiment with RPMI-8226 leukemia, in the experiment with KM12 colon, with NCI/ADR-RES ovarian, with DMS 273 small cell lung, in the experiment on SNB-78 CNS and in the experiment with A498 renal was > 100 µM each time. Moreover, the TGI in the experiment on MCF7 breast, in the experiment on DLD-1 colon, in the experiment with M19-MEL melanoma, in the experiment with XF 498 CNS, with HOP-18 NSCLC and in the experiment with HOP-92 NSCLC was > 100 µM each time. Moreover, the TGI with KM20L2 colon and in the experiment on NCI-H522 lung was > 100 µM throughout.

In the case of `Cc1ccc2c(=O)c3ccccc3sc2c1`, the TGI in the experiment on RPMI-8226 leukemia, with KM12 colon, in the experiment on M14 melanoma, in the experiment with DMS 273 small cell lung, in the experiment on SR leukemia and in the experiment with LXFL 529 NSCLC was > 100 µM each time. Moreover, the TGI in the experiment with DLD-1 colon, with M19-MEL melanoma, in the experiment with ACHN renal, in the experiment with HOP-18 NSCLC, in the experiment with KM20L2 colon and with NCI-H522 lung was > 100 µM each time. The TGI in the experiment with TK-10 renal is > 100 µM.

In the case of `CC(=O)Nc1cccc(N=NN(C)C)c1`, the TGI in the experiment on RPMI-8226 leukemia, with KM12 colon, with NCI/ADR-RES ovarian, with DMS 273 small cell lung, with SNB-78 CNS and in the experiment with A498 renal was > 100 µM each time. Also, the TGI with MCF7 breast is > 100 µM; with DLD-1 colon it was > 31.6 µM; in the experiment with M19-MEL melanoma it was > 100 µM; in the experiment with XF 498 CNS, > 100 µM; in the experiment with HOP-18 NSCLC it was > 100 µM; in the experiment on HOP-92 NSCLC, > 100 µM. The TGI in the experiment on KM20L2 colon and in the experiment with NCI-H522 lung was > 100 µM each time.

With `CC(C)NC(=O)OCc1c2c(n(C)c1COC(=O)NC(C)C)-c1ccccc1CC2`, the TGI in the experiment with RPMI-8226 leukemia worked out at 17.3 µM; in the experiment with KM12 colon, 29 µM; in the experiment on NCI/ADR-RES ovarian, 32.2 µM; in the experiment on DMS 273 small cell lung it was 27.3 µM; with SNB-78 CNS, 72 µM; in the experiment with A498 renal, 61.7 µM. In addition, the TGI with MCF7 breast is 22.4 µM; in the experiment with DLD-1 colon, 16.9 µM; in the experiment with M19-MEL melanoma, 23 µM; in the experiment on XF 498 CNS it was 28.2 µM; with HOP-18 NSCLC it was 13.9 µM; with HOP-92 NSCLC, 22.2 µM. The values for the TGI with KM20L2 colon and in the experiment with NCI-H522 lung were 28 µM and 18.1 µM, respectively.

As to `O=[N+]([O-])c1ccc(NNN=Nc2ccc(-c3nc4ccccc4s3)cc2)c([N+](=O)[O-])c1`, the TGI was > 100 µM in the experiment on KM12 colon; 35.2 µM with M14 melanoma; 81.5 µM in the experiment on NCI/ADR-RES ovarian; > 100 µM with HS 578T breast; 90.1 µM with SR leukemia; 20.5 µM with A498 renal. Moreover, the TGI was 57.3 µM with ACHN renal, 52.7 µM with HOP-92 NSCLC, 70.9 µM in the experiment with NCI-H522 lung and > 100 µM in the experiment on TK-10 renal.

Consider `O=C(O)C1CCCCN1c1ccccc1[N+](=O)[O-]` (configuration not stated), for which the TGI in the experiment on RPMI-8226 leukemia, in the experiment on M14 melanoma, in the experiment on DMS 273 small cell lung, with SNB-78 CNS, in the experiment with SR leukemia and in the experiment on LXFL 529 NSCLC was > 100 µM in each case. The TGI with DLD-1 colon, with M19-MEL melanoma, with XF 498 CNS, in the experiment with ACHN renal, in the experiment on HOP-18 NSCLC and in the experiment on HOP-92 NSCLC was > 100 µM each time. The TGI in the experiment with KM20L2 colon, in the experiment on NCI-H522 lung and with TK-10 renal was > 100 µM throughout.

As for `O=C(N/N=C/c1cc(Br)cc(Br)c1[O-])c1ccccc1O.O=C(N/N=C/c1cc(Br)cc(Br)c1[O-])c1ccccc1O.[Co+2]`, the TGI with KM12 colon came to 21.1 µM; in the experiment on M14 melanoma it was 2.73 µM; with SR leukemia it was 3.29 µM; in the experiment on ACHN renal, 11.1 µM; with HOP-92 NSCLC it was 6.13 µM; in the experiment with KM20L2 colon, 11.6 µM. Besides, the TGI with NCI-H522 lung came out at 2.49 µM; in the experiment with TK-10 renal, 14.1 µM.

With `O=c1oc2cc(O)ccc2c(O)c1Cc1c(O)c2ccc(O)cc2oc1=O`, the TGI with M14 melanoma, with NCI/ADR-RES ovarian, in the experiment on HS 578T breast, in the experiment on SR leukemia, in the experiment on A498 renal and in the experiment with MCF7 breast was > 100 µM in each case. Besides, the TGI in the experiment with HOP-92 NSCLC and in the experiment on TK-10 renal was > 100 µM in each case.

With `CN(Cc1cnc2c(N)nc(N)nc2n1)c1ccc(Cl)cc1`, the TGI in the experiment on RPMI-8226 leukemia, with KM12 colon, in the experiment on M14 melanoma, with NCI/ADR-RES ovarian, with HS 578T breast and with SR leukemia was > 100 µM in each case. Besides, the TGI in the experiment with A498 renal was 98.5 µM; with MCF7 breast it was > 100 µM; with ACHN renal, > 100 µM; with TK-10 renal, > 100 µM.

For the molecule `C[C@@H]1CC[C@@]2(OC1)O[C@H]1C[C@H]3[C@@H]4CC[C@H]5C[C@@H](OC6OC(CO)C(OC7OC(CO)C(O)C(OC8OCC(O)C(O)C8O)C7OC7OC(CO)C(O)C(O)C7O)C(O)C6O)[C@H](O)C[C@]5(C)[C@H]4CC[C@]3(C)[C@H]1[C@@H]2C` (some centres not stated), the TGI in the experiment on RPMI-8226 leukemia is 30.1 µM; in the experiment on KM12 colon it was 23.6 µM; in the experiment on M14 melanoma, 32 µM; with NCI/ADR-RES ovarian it was 12.6 µM; with HS 578T breast, 15.9 µM; in the experiment with SR leukemia it was > 33.8 µM. The TGI is 29.7 µM in the experiment with A498 renal; 1.68 µM in the experiment on MCF7 breast; 8.87 µM with ACHN renal; 66.5 µM in the experiment with HOP-92 NSCLC; 2.05 µM in the experiment on NCI-H522 lung; > 100 µM in the experiment with TK-10 renal.

Regarding `CCn1cnnc1-c1nsc2ccccc12`, the TGI in the experiment on RPMI-8226 leukemia, in the experiment on KM12 colon, in the experiment with M14 melanoma, in the experiment on DMS 273 small cell lung, in the experiment on SNB-78 CNS and in the experiment on SR leukemia was > 100 µM in each case. Also, the TGI in the experiment on LXFL 529 NSCLC, with M19-MEL melanoma, in the experiment with ACHN renal, with HOP-18 NSCLC, in the experiment with HOP-92 NSCLC and in the experiment on KM20L2 colon was > 100 µM in each case. In the experiment with TK-10 renal, the TGI is > 100 µM.

With `O=c1cc(-c2ccccc2)[nH]c2nccn12`, the TGI in the experiment on RPMI-8226 leukemia, with KM12 colon, with M14 melanoma, with NCI/ADR-RES ovarian, with HS 578T breast and in the experiment with SR leukemia was > 10 µM each time. Further, the TGI with A498 renal, in the experiment on MCF7 breast, in the experiment on ACHN renal, in the experiment with NCI-H522 lung and in the experiment on TK-10 renal was > 10 µM in each case.

Regarding `CC1=CC2c3cccc4[nH]cc(c34)CC2N(C)C1` (configuration not stated), the TGI with RPMI-8226 leukemia, in the experiment on KM12 colon, in the experiment on NCI/ADR-RES ovarian, with DMS 273 small cell lung, with SNB-78 CNS and in the experiment with A498 renal was > 100 µM each time. The TGI in the experiment on MCF7 breast is > 100 µM; with DLD-1 colon it was > 88.2 µM; in the experiment with M19-MEL melanoma, > 100 µM; in the experiment on XF 498 CNS, 99.1 µM; with HOP-18 NSCLC, 82.4 µM; in the experiment on HOP-92 NSCLC, > 80.7 µM. Besides, the TGI in the experiment on KM20L2 colon and with NCI-H522 lung was > 100 µM in each case.
